Data reported in patent publication US20220298160A1, “COMPOUNDS USEFUL IN HIV THERAPY” (priority 2019, published 2022).
Where two headings read alike, the source gives them in different places.

Experiments:
[1] = system: HIV pseudotyped virus (NL4-3 provirus), M184V; assay type: cell-based; settings: PSV assay; U373 cells expressing human CD4 and CXCR4 or CCR5; luciferase signal after 3 days of culture
[2] = system: HIV pseudotyped virus (NL4-3 provirus), WT; experiment: PSV assay (pseudotyped virus assay), WT; settings: U373 cells expressing human CD4 and CXCR4 or CCR5, luciferase signal after 3 days of culture
Description: A pseudotyped virus assay (PSV) was used to assess the potency of the HIV inhibitor. Replication defective virus was produced by co-transfection of a plasmid containing an NL4-3 provirus [containing a mutation in the envelope open reading frame (ORF) and a luciferase reporter gene replacing the nef ORF] and a CMV-promoter expression plasmid containing an ORF for various HIV gp160 envelope clones. The harvested virus was stored at −80 C in small aliquots and the titer of the virus measured to produce a robust signal for antiviral assays.
The PSV assay was performed by using U373 cells stably transformed to express human CD4, the primary receptor for HIV entry and either human CXCR4 or human CCR5 which are the co-receptors required for HIV entry as target cells for infection. […] This dose-range was applied to U373 cells and the pre-made pseudotyped virus added. The amount of luciferase signal produced after 3 days of culture was used to reflect the level of pseudotyped virus infection. An IC50, or the concentration of inhibitor required to reduce PSV infection by 50% from the infection containing no inhibitor was calculated. […] IC50 values were determined from a 10 point dose response curve using 3-4-fold serial dilution for each compound, which spans a concentration range >1000 fold.

[3] = Human immunodeficiency virus 1, NL43, in Homo sapiens, 72 h, read-out: WT IC50 (μM), PSV assay

SMILES	IC50 [1] [nM]	IC50 [2, 3] [µM]	IC50 ([2]; read-out: WT IC50, PSV assay) [µM]
C#C[C@]1(CO)O[C@@H](n2cnc3c(N)nc(F)nc32)C[C@@H]1OC(=O)NCCCCCCCCCCCC [Example 15, (2R,3S,5R)-5-(6-amino-2-fluoro-9H-purin-9-yl)-2-ethynyl-2-(hydroxymethyl)tetrahydrofuran-3-yl dodecylcarbamate]	> 15000	> 15	–
C#C[C@]1(CO)O[C@@H](n2cnc3c(N)nc(F)nc32)C[C@@H]1OC(=O)N(CC)CC [Example 21, (2R,3S,5R)-5-(6-amino-2-fluoro-9H-purin-9-yl)-2-ethynyl-2-(hydroxymethyl)tetrahydrofuran-3-yl diethylcarbamate]	> 25000	14.7	–
C#C[C@]1(CO)O[C@@H](n2cnc3c(N)nc(F)nc32)C[C@@H]1OC(=O)NC(C)C [Example 20, (2R,3S,5R)-5-(6-amino-2-fluoro-9H-purin-9-yl)-2-ethynyl-2-(hydroxymethyl)tetrahydrofuran-3-yl isopropylcarbamate]	> 25000	10.5	–
C#C[C@]1(CO)O[C@@H](n2cnc3c(N)nc(F)nc32)C[C@@H]1OC(=O)NC1CC1 [Example 24, (2R,3S,5R)-5-(6-amino-2-fluoro-9H-purin-9-yl)-2-ethynyl-2-(hydroxymethyl)tetrahydrofuran-3-yl cyclopropylcarbamate]	3740	1.48	–
C#C[C@]1(COC(=O)OC2COC(=O)CCCCCCCCCCCC(=O)OC2)O[C@@H](n2cnc3c(N)nc(F)nc32)C[C@@H]1O [Example 10, ((2R,3S,5R)-5-(6-amino-2-fluoro-9H-purin-9-yl)-2-ethynyl-3-hydroxytetrahydrofuran-2-yl)methyl (6,18-dioxo-1,5-dioxacyclooctadecan-3-yl) carbonate]	31.3	0.0097	–
C#C[C@]1(CO)O[C@@H](n2cnc3c(N)nc(F)nc32)C[C@@H]1OC(=O)NCCCCC [Example 19, (2R,3S,5R)-5-(6-amino-2-fluoro-9H-purin-9-yl)-2-ethynyl-2-(hydroxymethyl)tetrahydrofuran-3-yl pentylcarbamate]	9440	1.77	–
C#C[C@]1(COC(=O)OCc2ccc(OC(=O)CCCCCCCCCCCCCCCCCCC)cc2)O[C@@H](n2cnc3c(N)nc(F)nc32)C[C@@H]1O [Example 14, 4-((((((2R,3S,5R)-5-(6-amino-2-fluoro-9H-purin-9-yl)-2-ethynyl-3-hydroxytetrahydrofuran-2-yl)methoxy)carbonyl)oxy)methyl)phenyl icosanoate]	2410	1.55	–
C#C[C@]1(COC(=O)NC(C)C)O[C@@H](n2cnc3c(N)nc(F)nc32)C[C@@H]1O [Example 6, ((2R,3S,5R)-5-(6-amino-2-fluoro-9H-purin-9-yl)-2-ethynyl-3-hydroxytetrahydrofuran-2-yl)methyl isopropylcarbamate]	1080	0.56	–
C#C[C@]1(CO)O[C@@H](n2cnc3c(N)nc(F)nc32)C[C@@H]1OC(=O)NCCCCCCCCCCCCCCCCCC [Example 16, (2R,3S,5R)-5-(6-amino-2-fluoro-9H-purin-9-yl)-2-ethynyl-2-(hydroxymethyl)tetrahydrofuran-3-yl octadecylcarbamate]	22400	15	–
C#C[C@]1(COC(=O)N(CC)CC)O[C@@H](n2cnc3c(N)nc(F)nc32)C[C@@H]1O [Example 7, ((2R,3S,5R)-5-(6-amino-2-fluoro-9H-purin-9-yl)-2-ethynyl-3-hydroxytetrahydrofuran-2-yl)methyl diethylcarbamate]	2410	1.28	–
C#C[C@]1(COC(=O)NC)O[C@@H](n2cnc3c(N)nc(F)nc32)C[C@@H]1O [Example 5, ((2R,3S,5R)-5-(6-amino-2-fluoro-9H-purin-9-yl)-2-ethynyl-3-hydroxytetrahydrofuran-2-yl)methyl methylcarbamate]	> 25000	15.4	–
C#C[C@]1(CO)O[C@@H](n2cnc3c(N)nc(F)nc32)C[C@@H]1OC(=O)NCC(=O)OCC [Example 25, ethyl ((((2R,3S,5R)-5-(6-amino-2-fluoro-9H-purin-9-yl)-2-ethynyl-2-(hydroxymethyl)tetrahydrofuran-3-yl)oxy)carbonyl)glycinate]	1260	1.18	–
C#C[C@]1(COC(=O)NC(C)(C)C)O[C@@H](n2cnc3c(N)nc(F)nc32)C[C@@H]1O [Example 8, ((2R,3S,5R)-5-(6-amino-2-fluoro-9H-purin-9-yl)-2-ethynyl-3-hydroxytetrahydrofuran-2-yl)methyl tert-butylcarbamate]	1130	0.142	–
C#C[C@]1(CO)O[C@@H](n2cnc3c(NC(=O)OC4COC(=O)CCCCCCCCCCCC(=O)OC4)nc(F)nc32)C[C@@H]1O [Example 34, 6,18-dioxo-1,5-dioxacyclooctadecan-3-yl (9-((2R,4S,5R)-5-ethynyl-4-hydroxy-5-(hydroxymethyl)tetrahydrofuran-2-yl)-2-fluoro-9H-purin-6-yl)carbamate]	67.8	0.0132	–
C#C[C@]1(CO)O[C@@H](n2cnc3c(NC(=O)OC(COCCCCCCCCC)COC(=O)CCCCCCCC)nc(F)nc32)C[C@@H]1O (single isomer, unassigned) [Example 35]	33.1	0.0112	–
C#C[C@]1(CO)O[C@@H](n2cnc3c(NC(=O)OC(COCCCCCCCCC)COC(=O)CCCCCCCC)nc(F)nc32)C[C@@H]1O (single isomer, unassigned) [Example 36]	22.9	–	0.0085
C#C[C@]1(COC(=O)OCc2ccc(OC(=O)CCCCCCCCCCCCC)cc2)O[C@@H](n2cnc3c(N)nc(F)nc32)C[C@@H]1O [Example 13, 4-((((((2R,3S,5R)-5-(6-amino-2-fluoro-9H-purin-9-yl)-2-ethynyl-3-hydroxytetrahydrofuran-2-yl)methoxy)carbonyl)oxy)methyl)phenyl tetradecanoate]	17.8	0.0072	–
C#C[C@]1(CO)O[C@@H](n2cnc3c(N)nc(F)nc32)C[C@@H]1OC(=O)NCC(=O)OC(C)(C)C [Example 26, tert-butyl ((((2R,3S,5R)-5-(6-amino-2-fluoro-9H-purin-9-yl)-2-ethynyl-2-(hydroxymethyl)tetrahydrofuran-3-yl)oxy)carbonyl)glycinate]	17300	16.1	–
C#C[C@]1(COC(=O)OC(COC(=O)CCCCCCCC)COC(=O)CCCCCCCC)O[C@@H](n2cnc3c(N)nc(F)nc32)C[C@@H]1O [Example 9, 2-(((((2R,3S,5R)-5-(6-amino-2-fluoro-9H-purin-9-yl)-2-ethynyl-3-hydroxytetrahydrofuran-2-yl)methoxy)carbonyl)oxy)propane-1,3-diyl dinonanoate]	22.1	0.0049	–
C#C[C@]1(CO)O[C@@H](n2cnc3c(N)nc(F)nc32)C[C@@H]1OC(=O)OCc1ccc(OC(=O)CCCCCCCCCCCCCCCCCCC)cc1 [Example 11, 4-((((((2R,3S,5R)-5-(6-amino-2-fluoro-9H-purin-9-yl)-2-ethynyl-2-(hydroxymethyl)tetrahydrofuran-3-yl)oxy)carbonyl)oxy)methyl)phenyl icosanoate]	3210	2.31	–
C#C[C@]1(COC(=O)NCCCCCCCC)O[C@@H](n2cnc3c(N)nc(F)nc32)C[C@@H]1O [Example 2, ((2R,3S,5R)-5-(6-amino-2-fluoro-9H-purin-9-yl)-2-ethynyl-3-hydroxytetrahydrofuran-2-yl)methyl octylcarbamate]	> 25000	> 25	–
C#C[C@]1(CO)O[C@@H](n2cnc3c(N)nc(F)nc32)C[C@@H]1OC(=O)NCCCCCCCC [Example 17, (2R,3S,5R)-5-(6-amino-2-fluoro-9H-purin-9-yl)-2-ethynyl-2-(hydroxymethyl)tetrahydrofuran-3-yl octylcarbamate]	> 15000	> 15	–
C#C[C@]1(CO)O[C@@H](n2cnc3c(N)nc(F)nc32)C[C@@H]1OC(=O)NC(C)(C)C [Example 23, (2R,3S,5R)-5-(6-amino-2-fluoro-9H-purin-9-yl)-2-ethynyl-2-(hydroxymethyl)tetrahydrofuran-3-yl tert-butylcarbamate]	> 25000	> 25	–
C#C[C@]1(CO)O[C@@H](n2cnc3c(NC(=O)OC(COCCCCC)COC(=O)CCCC)nc(F)nc32)C[C@@H]1O (single isomer, unassigned) [Example 38]	23.4	–	0.007
C#C[C@]1(CO)O[C@@H](n2cnc3c(N)nc(F)nc32)C[C@@H]1OC(=O)OCc1ccc(OC(=O)CCCCCCCCCCCCC)cc1 [Example 12, 4-((((((2R,3S,5R)-5-(6-amino-2-fluoro-9H-purin-9-yl)-2-ethynyl-2-(hydroxymethyl)tetrahydrofuran-3-yl)oxy)carbonyl)oxy)methyl)phenyl tetradecanoate]	66.3	0.017	–
C#C[C@]1(CO)O[C@@H](n2cnc3c(N)nc(F)nc32)C[C@@H]1OC(=O)OC(COC(=O)CCCCCCCC)COC(=O)CCCCCCCC [Example 30, 2-(((((2R,3S,5R)-5-(6-amino-2-fluoro-9H-purin-9-yl)-2-ethynyl-2-(hydroxymethyl)tetrahydrofuran-3-yl)oxy)carbonyl)oxy)propane-1,3-diyl dinonanoate]	29.3	0.0077	–
C#C[C@]1(COC(=O)NCCCCC)O[C@@H](n2cnc3c(N)nc(F)nc32)C[C@@H]1O [Example 4, ((2R,3S,5R)-5-(6-amino-2-fluoro-9H-purin-9-yl)-2-ethynyl-3-hydroxytetrahydrofuran-2-yl)methyl pentylcarbamate]	> 25000	2.66	–
C#C[C@]1(CO)O[C@@H](n2cnc3c(NC(=O)OC(COCCCCC)COC(=O)CCCC)nc(F)nc32)C[C@@H]1O (single isomer, unassigned) [Example 37]	32.4	0.0095	–
